{"source": "paper PMC4754833", "about": "“Rilpivirine analogs potently inhibit drug-resistant HIV-1 mutants” (Retrovirology, 2016)", "key": {"[1]": {"test_system": "HIV-1 RT mutant V111A", "assay": "single round infection assay, V111A", "format": "cell-based", "conditions": "for fold-change of IC50 of the mutant relative to WT: V111A vs WT; for IC50: Human immunodeficiency virus 1, V111A, ± SD, n=4", "method": "(§1) The human osteosarcoma cell line, HOS, was obtained from Dr. Richard Schwartz (Michigan State University, East Lansing, MI) and grown in Dulbecco’s modified Eagle’s medium (Invitrogen, Carlsbad, CA) supplemented with 5 % (v/v) fetal bovine serum, 5 % newborn calf serum, and penicillin (50 units/ml) plus streptomycin (50 µg/ml; Quality Biological, Gaithersburg, MD). Virion production and single-round infectivity assays were used to determine antiviral activity (IC50 values) of the compounds as previously described.\n(§2) pNLNgoMIVR-ΔEnv.LUC has been described previously. The RT open reading frame was removed from pNLNgoMIVR-ΔEnv.LUC (digestion with SpeI and SalI) and inserted between the SpeI and SalI sites of pBluescript II KS+. Using that construct as the wild-type template, we prepared the following HIV-1 RT mutants using the QuikChange II XL (Stratagene, La Jolla, CA) site-directed mutagenesis protocol kit: L100I, K103N, Y181C, Y188L, H221Y, K103N/Y181C, G190A, G190S, M230L, P236L, L100I/K103N, K103N/P225H, V106A/G190A/F227L, V106A, L234I, V106A/F227L, V106A/L234I, V106A/F227L/L234I, E40K, D67E, K101E, V111A, E138K, M184I, M184V, K101E/M184I, K101E/M184V, E138K/M184I, E138K/M184V, K101P, Y181I, and K101P/V179I. The following sense oligonucleotides were used with matching cognate antisense oligonucleotides (not shown) (Integrated DNA Technologies, Coralville, IA) in the mutagenesis: L100I, 5′-[…]-3′; L100I 2-103, 5′-[…]-3′; K103N, 5′-[…]-3′; Y181C, 5′-[…]-3′; Y188L, 5′-[…]-3′; H221Y, 5′-[…]-3′; G190A, 5′-[…]-3′; G190S, 5′-[…]-3′; P225H, 5′-[…]-3′; F227, 5′-[…]-3′; M230L, 5′-[…]-3′; P236L, 5′-[…]-3′; V106A, 5′-[…]-3′; L234I, 5′-[…]-3′; E40K, 5′-[…]-3′; D67E, 5′-[…]-3′; K101E, 5′-[…]-3′; V111A, 5′-[…]-3′; E138K, 5′-[…]-3′; M184I, 5′-[…]-3′; M184V, 5′-[…]-3′; K101P, 5′-[…]-3′; Y181I, 5′-[…]-3′; K101P/V179I, 5′-[…]-3′. The double mutants K103N/Y181C, K103N/P225H, and L100I/K103N were made using the previously generated K103N mutant and the appropriate oligonucleotides to add the second mutation, Y181C, P225, and L100I respectively. The double mutants V106A/F227L and V106A/L234I were prepared using the previously generated V106A mutant and the appropriate oligonucleotides to add the second mutation, F227L and L234I, respectively. The double mutants K101E/M184I and K101E/M184V were constructed using the previously generated K101E mutant and the appropriate oligonucleotides to add the second mutation, M184I and M184V, respectively. The double mutants E138K/M184I and E138K/M184V were constructed using the previously generated E138K mutant and the appropriate oligonucleotides for the second mutation, M184I and M184V, respectively. The triple mutant V106A/F227L/L234I was made using the previously generated V106A/F227L double mutant and the appropriate oligonucleotides for the third mutation, L234I. The triple mutant V106A/G190A/F227L was constructed in a series of steps using the previously generated V106A mutant and the appropriate oligonucleotides for the second mutation, G190A, to generate the double mutant V106A/G190A, and then the triple mutant was made using double mutant V106A/G190A and oligonucleotides for the third mutation, F227L. […]\n(§3) 10.1186/s12977-016-0244-2 The IC50 values (nM) of RPV and the RPV analogs were determined against the NNRTI resistant mutants were measured by using a single round infection assay, n = 4. The concentrations (nM) are measured by reductions in luciferase reporter activity followed by the standard deviations. […]"}, "[2]": {"test_system": "HIV-1 RT mutant K103N/Y181C", "parameters": "method as in PMID 23217210", "conditions": "previous study; cited from earlier work"}, "[3]": {"test_system": "HIV-1 RT mutant Y188L", "parameters": "method as in PMID 23217210", "conditions": "previous study; cited from earlier work"}, "[4]": {"test_system": "HIV-1 RT mutant M184I", "assay": "single round infection assay, M184I", "format": "cell-based", "conditions": "for IC50: Human immunodeficiency virus 1, M184I, ± SD, n=4", "method": "as §1\nas §2, with “respectively.” for “respectively. The double mutants E138K/M184I and E138K/M184V were constructed using the previously generated E138K mutant and the appropriate oligonucleotides for the second mutation, M184I and M184V, respectively. The triple mutant V106A/F227L/L234I was made using the previously generated V106A/F227L double mutant and the appropriate oligonucleotides for the third mutation, L234I. The triple mutant V106A/G190A/F227L was constructed in a series of steps using the previously generated V106A mutant and the appropriate oligonucleotides for the second mutation, G190A, to generate the double mutant V106A/G190A, and then the triple mutant was made using double mutant V106A/G190A and oligonucleotides for the third mutation, F227L.”\nas §3"}, "[5]": {"test_system": "HIV-1 RT mutant M184V", "assay": "single round infection assay, M184V", "format": "cell-based", "conditions": "for IC50: Human immunodeficiency virus 1, M184V, ± SD, n=4; for fold-change of IC50 of the mutant relative to WT: M184V vs WT", "method": "as §1, §2, §3"}, "[6]": {"test_system": "HIV-1 RT mutant E138K", "parameters": "method as in PMID 23217210", "conditions": "previous study; cited from earlier work"}, "[7]": {"test_system": "HIV-1 RT mutant V106A/L234I", "assay": "single round infection assay, V106A/L234I", "format": "cell-based", "conditions": "V106A/L234I vs WT", "method": "as §1\npNLNgoMIVR-ΔEnv.LUC has been described previously. The RT open reading frame was removed from pNLNgoMIVR-ΔEnv.LUC (digestion with SpeI and SalI) and inserted between the SpeI and SalI sites of pBluescript II KS+. Using that construct as the wild-type template, we prepared the following HIV-1 RT mutants using the QuikChange II XL (Stratagene, La Jolla, CA) site-directed mutagenesis protocol kit: L100I, K103N, Y181C, Y188L, H221Y, K103N/Y181C, G190A, G190S, M230L, P236L, L100I/K103N, K103N/P225H, V106A/G190A/F227L, V106A, L234I, V106A/F227L, V106A/L234I, V106A/F227L/L234I, E40K, D67E, K101E, V111A, E138K, M184I, M184V, K101E/M184I, K101E/M184V, E138K/M184I, E138K/M184V, K101P, Y181I, and K101P/V179I. […]\nas §3"}}}
{"smiles": "Cc1cc(/C=C/C#N)cc(C)c1Nc1ccnc(Nc2ccc(C#N)cc2)n1", "note": "[RPV, rilpivirine]", "values": [{"measurement": "fold-change of IC50 of the mutant relative to WT", "setting": "[1]", "value": "< 2"}, {"measurement": "IC50", "setting": "[2]", "value": "< 5", "unit": "nM"}]}
{"smiles": "Cc1cc(/C=C/C#N)cc(C)c1Nc1nc(Nc2ccc(C#N)cc2)ncc1[N+](=O)[O-]", "note": "[compound 6]", "values": [{"measurement": "IC50", "setting": "[3]", "value": "< 10", "unit": "nM"}]}
{"smiles": "Cc1cc(/C=C/C#N)cc(C)c1Nc1nc(Nc2ccc(C#N)cc2)ncc1N", "note": "[compound 7]", "values": [{"measurement": "IC50", "setting": "[3]", "value": "< 10", "unit": "nM"}, {"measurement": "IC50", "setting": "[2]", "value": "< 5", "unit": "nM"}]}
{"smiles": "COc1ccc(Cn2cnc3c(Nc4ccc(C#N)cc4)nc(Nc4c(C)cc(/C=C/C#N)cc4C)nc32)cc1", "note": "[compound 12]", "values": [{"measurement": "IC50", "setting": "[1]", "value": "0.76 ± 0.17", "unit": "nM"}, {"measurement": "fold-change of IC50 of the mutant relative to WT", "setting": "[1]", "value": "< 2"}, {"measurement": "IC50", "setting": "[4]", "value": "0.69 ± 0.2", "unit": "nM"}, {"measurement": "IC50", "setting": "[5]", "value": "1.6 ± 0.42", "unit": "nM"}, {"measurement": "fold-change of IC50 of the mutant relative to WT", "setting": "[5]", "value": 2}, {"measurement": "IC50", "setting": "[6]", "value": 15, "unit": "nM"}]}
{"smiles": "Cc1cc(/C=C/C#N)cc(C)c1Nc1nc(Nc2ccc(C#N)cc2)c2nc[nH]c2n1", "note": "[compound 13]", "values": [{"measurement": "IC50", "setting": "[3]", "value": "< 10", "unit": "nM"}]}
{"smiles": "CC(=O)c1ccc(Nc2nc(Nc3c(C)cc(/C=C/C#N)cc3C)nc3[nH]cnc23)cc1", "note": "[compound 14]", "values": [{"measurement": "fold-change of IC50 of the mutant relative to WT", "setting": "[7]", "value": 3}]}
{"smiles": "COc1ccc(Nc2nc(Nc3c(C)cc(/C=C/C#N)cc3C)nc3[nH]cnc23)cc1", "note": "[compound 16]", "values": [{"measurement": "fold-change of IC50 of the mutant relative to WT", "setting": "[4]; M184I vs WT", "value": "< 2"}, {"measurement": "fold-change of IC50 of the mutant relative to WT", "setting": "[5]", "value": "< 2"}]}
{"smiles": "Cc1cc(/C=C/C#N)cc(C)c1Nc1nc(Nc2ccc(F)cc2)c2nc[nH]c2n1", "note": "[compound 17]", "values": [{"measurement": "IC50", "setting": "[1]", "value": "0.5 ± 0.17", "unit": "nM"}, {"measurement": "IC50", "setting": "[4]", "value": "1.7 ± 0.3", "unit": "nM"}, {"measurement": "IC50", "setting": "[5]", "value": "1.6 ± 0.26", "unit": "nM"}]}
{"smiles": "Cc1cc(/C=C/C#N)cc(C)c1Nc1nc(Nc2ccc3scnc3c2)c2nc[nH]c2n1", "note": "[compound 21]", "values": [{"measurement": "fold-change of IC50 of the mutant relative to WT", "setting": "[7]", "value": 2}, {"measurement": "IC50", "setting": "[3]", "value": "< 10", "unit": "nM"}]}
{"smiles": "Cc1cc(/C=C/C#N)cc(C)c1Nc1ncc2ncn(-c3ccc(C#N)cc3)c2n1", "note": "[compound 26]", "values": [{"measurement": "fold-change of IC50 of the mutant relative to WT", "setting": "[7]", "value": 5}, {"measurement": "IC50", "setting": "[1]", "value": "1.5 ± 0.8", "unit": "nM"}, {"measurement": "IC50", "setting": "[4]", "value": "5.6 ± 2.2", "unit": "nM"}, {"measurement": "IC50", "setting": "[5]", "value": "4.2 ± 0.99", "unit": "nM"}]}
{"smiles": "Cc1cc(/C=C/C#N)cc(C)c1-n1cnc2cnc(Nc3ccc(C#N)cc3)nc21", "note": "[compound 27]", "values": [{"measurement": "IC50", "setting": "[3]", "value": "< 10", "unit": "nM"}]}
